Reference: patent publication US20210047324A1 (Aptinyx Inc., priority 2018, published 2021)

How the values were obtained:
[1] = Oral pharmacokinetics in Sprague Dawley rats (plasma, brain, CSF); type: in vivo; conditions: rat, 10 mg/kg
Method: In another experiment, Sprague Dawley rats were dosed per os (oral gavage) using a normal saline formulation containing 10 mg/kg of the compounds identified in the table below. Plasma, brain, and CSF samples were analyzed at various time points over a 24 hour period. The table below summarizes the results of the oral pharmacokinetics, where the first three values (Tmax, Cmax and AUClast) are plasma values.

[2] = Plasma stability (Rat); type: in vitro ADME; conditions: after 60 minutes
Method: (§1) Plasma stability of disclosed compounds was investigated. The following table indicates the percent of compound remaining after 60 minutes.

[3] = system: Sprague Dawley rats; assay: Porsolt forced swim test; type: in vivo
[4] = Plasma stability (Human); type: in vitro ADME; conditions: after 60 minutes
Method: as §1

[5] = IV pharmacokinetics in Sprague Dawley rats; type: in vivo; conditions: Sprague-Dawley, rat, in vivo, iv, 2 mg/kg, normal saline
Method: Sprague Dawley rats were dosed intravenously using a normal saline formulation containing 2 mg/kg of the compounds identified in the below table. The table below summarizes the results of the IV pharmacokinetics.

[6] = Microsomal stability (Human); type: in vitro ADME; conditions: after 60 minutes
Method: (§2) Microsomal stability of disclosed compounds was investigated. The following table indicates the percent of compound remaining after 60 minutes.

[7] = molecular target: T1, NMDAR2A (Homo sapiens, UniProt Q12879); assay: NMDAR agonist assay, [3H]MK-801 binding, NMDAR2A expressing HEK cell membranes; type: biochemical; conditions: 50 μM glutamate
T1 construct: expressed in transfected cells; host or cells: HEK cells (membrane extract)
T1 sequence (Q12879 23-1464, species assumed, other chains not shown): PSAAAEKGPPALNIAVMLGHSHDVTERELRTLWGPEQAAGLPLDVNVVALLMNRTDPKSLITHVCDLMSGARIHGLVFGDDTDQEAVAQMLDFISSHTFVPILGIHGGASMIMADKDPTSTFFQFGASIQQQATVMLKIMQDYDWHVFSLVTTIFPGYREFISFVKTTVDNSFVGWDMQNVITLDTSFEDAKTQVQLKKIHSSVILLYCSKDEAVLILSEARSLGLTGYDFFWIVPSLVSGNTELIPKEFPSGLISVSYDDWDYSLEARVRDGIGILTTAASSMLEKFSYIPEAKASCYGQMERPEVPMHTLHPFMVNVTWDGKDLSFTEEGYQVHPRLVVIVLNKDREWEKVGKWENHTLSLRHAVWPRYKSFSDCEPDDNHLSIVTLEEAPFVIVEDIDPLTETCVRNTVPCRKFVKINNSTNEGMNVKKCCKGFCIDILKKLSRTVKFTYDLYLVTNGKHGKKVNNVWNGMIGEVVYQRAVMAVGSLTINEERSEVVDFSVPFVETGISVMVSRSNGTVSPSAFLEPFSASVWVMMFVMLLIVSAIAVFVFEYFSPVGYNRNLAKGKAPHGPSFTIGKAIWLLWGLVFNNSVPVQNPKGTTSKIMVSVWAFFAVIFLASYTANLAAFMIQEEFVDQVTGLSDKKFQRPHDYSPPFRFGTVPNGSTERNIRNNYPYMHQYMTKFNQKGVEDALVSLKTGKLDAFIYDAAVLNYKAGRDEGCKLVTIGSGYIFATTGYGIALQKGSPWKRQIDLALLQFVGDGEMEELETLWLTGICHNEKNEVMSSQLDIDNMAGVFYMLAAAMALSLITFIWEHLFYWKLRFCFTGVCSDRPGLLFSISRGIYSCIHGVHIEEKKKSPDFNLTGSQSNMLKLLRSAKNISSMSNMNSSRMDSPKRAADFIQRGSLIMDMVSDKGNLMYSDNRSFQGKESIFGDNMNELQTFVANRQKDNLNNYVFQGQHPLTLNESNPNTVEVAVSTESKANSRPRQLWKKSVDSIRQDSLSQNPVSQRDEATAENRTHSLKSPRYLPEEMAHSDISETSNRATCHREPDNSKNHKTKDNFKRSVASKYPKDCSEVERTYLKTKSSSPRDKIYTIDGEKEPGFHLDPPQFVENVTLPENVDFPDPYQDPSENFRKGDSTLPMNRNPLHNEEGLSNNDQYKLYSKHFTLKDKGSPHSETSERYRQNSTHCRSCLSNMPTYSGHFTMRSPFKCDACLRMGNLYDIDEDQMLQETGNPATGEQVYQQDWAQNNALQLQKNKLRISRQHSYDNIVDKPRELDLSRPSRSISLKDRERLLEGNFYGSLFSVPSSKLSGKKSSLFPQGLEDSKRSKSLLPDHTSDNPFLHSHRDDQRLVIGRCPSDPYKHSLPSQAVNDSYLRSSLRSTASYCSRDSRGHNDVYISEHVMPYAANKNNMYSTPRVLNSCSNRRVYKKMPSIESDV
Summary of the method: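 Membranes from HEK cells (300 μg protein) preincubated 15 min with 50 μM glutamate plus compound (1×10^−15–1×10^−7 M) or 1 mM glycine, then with 0.3 μCi [3H]MK-801 for 15 min at 25° C. (nonequilibrium); filter-bound DPM, baseline-subtracted, expressed as % of 1 mM glycine; EC50 and % maximum from three-parameter fit.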

[8] = Microsomal stability (Rat); type: in vitro ADME; conditions: after 60 minutes
Method: as §2

`O=C1NCC=CC[C@]12CCCN2` [GA, (R)-1,7-diazaspiro[4.6]undec-9-en-6-one] gave a Tmax ([1]; Sprague-Dawley, po, per os, plasma, read-out: Tmax) of 0.5 h, an AUC(0-t) ([1]; Sprague-Dawley, plasma, po, per os) of 3860 ng·h/mL and a bioavailability ([1]; Sprague-Dawley, plasma, po, per os 10 mg/kg) of 62%. For the same compound, the Cmax ([1]; Sprague-Dawley, plasma, po, per os, plasma, read-out: Cmax) was 1960 ng/mL, the “CSF Cmax” value ([1]; per os, CSF) was 551.3 ng/mL and the “Brain Cmax” value ([1]; per os, brain) was 3963.2 ng/mL. The “Plasma (Rat): percent of compound remaining” value [2] was 100%, the “% reduction in float time” value ([3]; 1 wk post-dose, 0.00001 mg/kg) was 55% and the Significance vs. vehicle ([3]; 1 wk post-dose, 0.00001 mg/kg) was “Yes”. For the same compound, the “% reduction in float time” value ([3]; 1 wk post-dose, 0.001 mg/kg) was 71%, the Significance vs. vehicle ([3]; 1 wk post-dose, 0.001 mg/kg) was “Yes” and the “% reduction in float time” value ([3]; 1 wk post-dose, 0.1 mg/kg) was 72%. For the same compound, the Significance vs. vehicle ([3]; 1 wk post-dose, 0.1 mg/kg) was “Yes”, the “% reduction in float time” value ([3]; 1 wk post-dose, 10.0 mg/kg) was 44% and the Significance vs. vehicle ([3]; 1 wk post-dose, 10.0 mg/kg) was “Yes”. For the same compound, the “% reduction in float time” value ([3]; 1 h post-dose, 0.00001 mg/kg) was 29%, the Significance vs. vehicle ([3]; 1 h post-dose, 0.00001 mg/kg) was “No” and the “% reduction in float time” value ([3]; 1 h post-dose, 0.001 mg/kg) was 58%. For the same compound, the Significance vs. vehicle ([3]; 1 h post-dose, 0.001 mg/kg) was “Yes”, the “% reduction in float time” value ([3]; 1 h post-dose, 0.1 mg/kg) was 67% and the Significance vs. vehicle ([3]; 1 h post-dose, 0.1 mg/kg) was “Yes”. For the same compound, the “% reduction in float time” value ([3]; 1 h post-dose, 10.0 mg/kg) was 50%, the Significance vs. vehicle ([3]; 1 h post-dose, 10.0 mg/kg) was “No” and the “% reduction in float time” value ([3]; 24 h post-dose, 0.1 mg/kg) was 64%. The Significance vs. vehicle ([3]; 24 h post-dose, 0.1 mg/kg) was “Yes”, the “Plasma (Human): percent of compound remaining” value [4] was 95% and the AUC(0-t) [5] was 1250 ng·h/mL. The clearance [5] was 27 mL/min/kg, the half-life [5] was 3.6 h and the Cmax ([5]; read-out: Cmax) was 1470 ng/mL. The Vd ([5]; read-out: Vss) was 3.92 L/kg, the “Microsomal (Human): percent of compound remaining” value [6] was 94% and the EC50 ([7]; read-out: NMDAR2A B: log EC50 (converted)) was no less than 1 nM. For the same compound, the Emax ([7]; 0.25 h, relative to 1 mM glycine, read-out: NMDAR2A A: % maximal [3H]MK-801 binding relative to 1 mM glycine) was less than 100% and the “Microsomal (Rat): percent of compound remaining” value [8] was 90%.
